According to patent publication US4680311A, “Method for the treatment of systemic mycosis” (Taisho Pharmaceutical Co., Ltd., priority 1985, dated 1987):
Like-named read-outs stand apart in the source and are kept apart here.

Experiments:
[1] = test system: fungi; settings: A. Miyake, Chem. Pharm. Bull., 8, 1071 (1960); cited from earlier work
[2] = test system: Candida albicans; type: in vivo, Candida albicans TIMM 0239 in female SPF Crj:CD-1 (ICR) mice; settings: for Survival rate / Average viable counts recovered (per mouse): twice daily, 14 days; for Survival rate: control 0/5; for Average viable counts recovered (per mouse): kidneys, control 4.87 × 10^7
Method: (§1) Female SPF mice Crj:CD-1 (ICR) strain, 4 weeks of age, weighing 18 g±1 g, were used as test animals. One loopful organisms of Candida albicans TIMM 0239 grown on Sabouraud's glucose agar slants were inoculated into Sabouraud's glucose broth containing 0.5% yeast extract. Then cultures were grown aerobically at 37° C. for 18 hours. The organisms were harvested from the cultures, washed twice with sterilized physiological saline, and finally suspended in saline. A total number of organisms was counted in a Burker-Turk hemocytometer. Thus prepared cell suspension was adjusted to contain 10^6 cells/ml, 0.2 ml of which was then injected into the tail vein in each mouse. Infected mice were allocated randomly to different groups. Each group consisted of eight mice.
(§2) (S)-2-amino-5-hydroxy-4-oxopentanoicacid was dissolved in sterilized physiological saline. The mice in the treated groups received the solution of this compound in a dose of 50 mg per kg mouse body weight once daily via an intravenous, subcutaneous, intraperitoneal or oral route for 5 consecutive days, starting on the day of infection. The first treatment was given immediately after a challenge of Candida albicans. The untreated control animals were intravenously given the same volume of saline in place of the test compound solution. The animals were observed daily for 10 days postinfection.
The same experimental conditions as for Test Example 1 were employed, except that all groups of five animals were infected with 1.0×10^6 organisms and treated with either 25, 50 or 100 mg/kg of the test compound twice daily for 14 consecutive days. Duration of observation period was two weeks after infection.
The criteria to evaluate efficacy of the test compound include survival rate and viable counts of Candida albicans recovered from the kidneys of infected animals. Both kidneys were excised from all the animals at the end of the experimental period, homogenized and cultured on Sabouraud's glucose agar plates for assay of viable counts.

[3] = test system: Candida albicans TIMM 0239; assay: Test Example 1: survival of mice with systemic Candida albicans infection; type: in vivo, Candida albicans TIMM 0239 in female SPF Crj:CD-1 (ICR) mice; settings: for Survival rate: 50 mg/kg once daily, 5 days, observed 10 days postinfection, control 0/8
Method: as §1, §2

[4] = Acute toxicity in mice; type: in vivo; settings: mouse, in vivo, mice
Source text: (§3) This finding leads the inventors to possible usefulness of this substance for the therapy of human cases of candidiasis and other systemic mycoses. This substance is an extremely specific antimycotic agent in that it quite differs in chemical structure from any existing antimycotic agents.

[5] = test system: mice; assay: Acute toxicity in mice; type: in vivo
Source text: as §3

[6] = test system: pathogenic human tubercle bacilli; settings: A. Miyake, Chem. Pharm. Bull., 8, 1071 (1960); cited from earlier work
[7] = test system: Candida albicans; assay: protective and therapeutic efficacy in mice experimentally infected with Candida albicans; type: in vivo
Method: as §1
as §2, with “postinfection. […]” for “postinfection.”

For N[C@@H](CC(=O)CO)C(=O)O [(S)-2-amino-5-hydroxy-4-oxopentanoicacid], the “in vitro antimycotic activity” value [1] is given as “does hardly exert an in vitro antimycotic activity”, the Survival rate ([2]; 25 mg/kg oral) is given as 1/5 and the Survival rate ([2]; 50 mg/kg oral) is given as 2/5. The Survival rate ([2]; 100 mg/kg oral) was 5/5, the “Average viable counts recovered (per mouse)” value ([2]; 25 mg/kg oral) was 1.45 × 10^7 per mouse and the “Average viable counts recovered (per mouse)” value ([2]; 50 mg/kg oral) was 1.41 × 10^6 per mouse. For the same compound, the “Average viable counts recovered (per mouse)” value ([2]; 100 mg/kg oral) was 2.41 × 10^5 per mouse, the “correlation between therapeutic efficacy and oral dose” value ([2]; oral, 25, 50 or 100 mg/kg) was “close correlation” and the Survival rate ([3]; intraperitoneal) was 0/8. The Survival rate ([3]; intravenous) was 4/8, the Survival rate ([3]; oral) was 4/8 and the Survival rate ([3]; subcutaneous) was 0/8. For the same compound, the therapeutic efficacy ([3]; especially by intravenous or oral route, murine systemic candidiasis) was “significant therapeutic efficacy”, the LD50 ([4]; ip) was ≥ 5000 mg/kg and the LD50 ([4]; po) was ≥ 6000 mg/kg. The LD50 ([4]; sc) was ≥ 5000 mg/kg, the “toxicity compared with existing antimycotic drugs” value ([5]; acute toxicity, mice) was “lower than that of any existing antimycotic drugs” and the “tolerability in experimental animals” value ([5]; mouse, in vivo) was “very high tolerability”. For the same compound, the “activity against pathogenic human tubercle bacilli” value [6] was “highly active” and the “protective and therapeutic efficacy” value [7] was “significant protective and therapeutic efficacy”.
